Assay results reported in patent US20050181042A1, “Composition for oral or rectal administration” (priority 2002, published 2005).

Assay: Plasma gentamycin after oral administration to NZW rabbits
Format: in vivo
Details: for Plasma concentration of gentamycin: n = 3
Method: NZW rabbits were used in all experiments and all tablet/capsules were administered orally. The animals were given four, five or six tablets/capsules followed by water until they had swallowed the tablets/capsules. The animals were deprived of food for about 18 hours before dosing. […] The blood samples were centrifuged for 10 min at approximately 2000×g to obtain plasma for determination of gentamycin by EMIT 2000 TDM assay on a Hitachi 704 Analyzer (Table 10).
The area under the curve (AUC) was calculated by the linear trapezoidal rule to the last blood concentration. Two different doses (5 or 10 mg/kg bodyweight) were used during the experiments. For comparison of the results of the different formulations the AUC was divided by the respective dose of gentamycin. The obtained plasma concentration for pure gentamycin was set to 1. The obtained plasma concentrations for gentamycin in the three different lipid formulations were then expressed as multiple factors of increasing bioabsorption.

Gentamycin sulphate [Gentamycin 1]
Correlation factor (multiple of bioabsorption, pure gentamycin = 1) (dose-adjusted AUC relative to Gentamycin 1): 1 | Plasma concentration of gentamycin (oral, dose 10 mg/kg, 0 hrs): 0 microgram/mL | Plasma concentration of gentamycin (oral, dose 10 mg/kg, 0.5 hrs): 0.01 microgram/mL | Plasma concentration of gentamycin (oral, dose 10 mg/kg, 1 hr): 0.01 microgram/mL | Plasma concentration of gentamycin (oral, dose 10 mg/kg, 2 hrs): 0.02 microgram/mL | Plasma concentration of gentamycin (oral, dose 10 mg/kg, 4 hrs): 0.01 microgram/mL | Plasma concentration of gentamycin (oral, dose 10 mg/kg, 6 hrs): 0.03 microgram/mL | AUC (oral, dose 10 mg/kg, linear trapezoidal rule to last blood concentration (6 hrs)): 0.09
